The text below walks through data of paper PMC3259047 (Molecular Neurodegeneration, 2011).

The target in one series is T1, neuritic plaques (Homo sapiens, UniProt P05067).
T1 construct: Aβ1-42 (the predominant species in neuritic plaques); from tissue; host or cells: brain of 16-month-old Tg2576 transgenic mice
As to the kind of experiment: In situ saturation binding assay in fixed Tg2576 brain sections, fluorescence on neuritic plaques. Further details: species or system Tg2576 mice. The settings on record: 16 month-old Tg2576 fixed brain sections, intrinsic fluorescence, 30 min room temperature; read-out: Amyloid binding affinity (KD) on neuritic plaques. The protocol: (§1) Figure 5 In situ binding assay in Tg2576 brain sections. Sixteen month-old Tg2576 mice were perfused with PBS and brains were post-fixed in 4% paraformaldehyde. Coronal brain sections (40 μm thick) were washed three times with PBS and incubated with various concentrations of test compounds (4 sections/concentration; 6 concentrations/compound) at room temperature for 30 min. Brain sections were washed twice with PBS and 50% ethanol in PBS then cover-slipped. […] Scale bar: 100 μm. Fluorescent images of the sensorimotor cortex were taken and the fluorescent intensity on CAA (B) and neuritic plaques (C) was quantified. Saturation binding curves were plotted to obtain the binding affinity (KD) values (see Table 2).

Series [1] deals with cerebrovascular Aβ deposits and neuritic plaques. As to the kind of experiment: Fluorescent staining of fixed aged Tg2576 brain sections. Type of series: binding. The conditions noted are these: fixed brain sections of aged Tg2576 mice; 1 μM resorufin, 2 μM methoxy-X34. The protocol:
Scale bars in A-D: 100 μm.
Tg2576 and littermate wild-type mice at 12-16 months of age were anesthetized with isoflurane and transcardially perfused with PBS. Brains were removed, post-fixed overnight in 4% paraformaldehyde in 0.1 M phosphate buffer (pH 7.4) at 4°C, and preserved in 30% sucrose in 0.1 M phosphate buffer at 4°C. Brains were sectioned coronally (40 μm) on a freezing sliding microtome as described previously. […] Brain sections were washed three times with PBS and once with 50% ethanol in PBS for 5 min each. After three more PBS washes, brain sections were mounted on a slide glass and cover-slipped with Vectashield mounting media (Vector laboratories, Burlingame, CA). Fluorescent staining was visualized using a Nikon Eclipse ME600 digital video microscopy system (Nikon Instruments Inc., Melville, NY) and MetaMorph imaging software (Molecular Devices, Sunnyvale, CA). Cross-sectional area covered by CAA vessels and parenchymal plaques were quantified using ImageJ software (National Institutes of Health, Bethesda, MD) as previously described.

Series [2] has as its target CAA deposits (cerebrovascular Aβ aggregates) (Homo sapiens, UniProt P05067). As to the kind of experiment: In situ saturation binding assay in fixed Tg2576 brain sections, fluorescence on CAA. Further details: species or system Tg2576 mice. The conditions noted are these: 16 month-old Tg2576 fixed brain sections, intrinsic fluorescence, 30 min room temperature; read-out: Amyloid binding affinity (KD) on CAA (converted). Here is the method:
as §1

Series [3] in a line: Octanol-water partition coefficient (logPoct) by fluorometry. The format is physicochemical. The conditions noted are these: n-octanol/distilled water, 100 μM, room temperature, mean ± S.E.M, three independent experiments. Here is the method:
Octanol-water partition coefficients (logPoct) were determined as described previously with modification. […] The samples were incubated at room temperature with a brief vortex every 5 min for 60 minutes. After centrifugation at 2,000 g for 10 min, octanol and water layers were separately transferred to microcentrifuge tubes. Concentrations were determined by fluorometry at an excitation wave length of 530/25 nm and an emission wave length of 590/30 nm using an ELISA reader (Biotek, Winooski, VT).

Details of series [4]: method as in Klunk et. al. [51]. The settings on record: ref Klunk et. al. [51]; cited from earlier work.
The subject of series [5] is 3D6-positive cerebral arterioles and neuritic plaques. The experiment in a line: Fluorescent staining of paraffin-embedded human AD brain sections (3D6 co-labeling). The settings on record: human AD cortical sections, 1 μM resorufin. The format is binding.
For series [6], the system named is CAA amyloid deposits and neuritic plaques. As to the kind of experiment: In vivo live imaging through closed cranial window in aged Tg2576 mice. The settings on record: 6 mg/kg i.p. per legend and methods.

SMILES strings stand for the structures. Like-named read-outs stand apart in the source and are kept apart here.

One may read the Kd as the free concentration of one partner at which half of the binding sites on the other are occupied at equilibrium, for simple one-to-one binding. One may read the logP as a log measure of how a compound divides between an organic and an aqueous phase.

T1 sequence (P05067 672-713 limits assumed): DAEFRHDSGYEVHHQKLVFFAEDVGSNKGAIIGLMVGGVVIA
Chain of CAA deposits (cerebrovascular Aβ aggregates) (P05067 672-711 limits assumed): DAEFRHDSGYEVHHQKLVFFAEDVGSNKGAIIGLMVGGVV

In the case of `O=c1ccc2nc3ccc(OCc4ccccc4)cc3oc-2c1` [Benzyloxyresorufin, benzyloxy-resorufin], the dissociation constant Kd is greater than 10 µM on neuritic plaques and 0.473 ± 0.082 µM in series [2]. In addition, the “Binding to CAA-laden vessels versus neuritic plaques (fluorescent staining)” value in series [1] was “preferentially bound CAA-laden vessels but not neuritic plaques”. Also, the logPoct is on record as 2.206 ± 0.104 in series [3] and 2.21 in series [3] (listed as benzyloxy-resorufin).
With `CCOc1ccc2nc3ccc(=O)cc-3oc2c1` [Ethoxyresorufin, ethoxy-resorufin], the Kd on neuritic plaques was greater than 10 µM; in series [2] it was 0.247 ± 0.135 µM. Besides, the “Binding to CAA-laden vessels versus neuritic plaques (fluorescent staining)” value in series [1] is “preferentially bound CAA-laden vessels but not neuritic plaques”. The compound also gave a log partition coefficient (logP) in series [3] of 1.94 ± 0.137. In series [3], the logPoct was 1.94.
For the compound `COc1cc(C=Cc2ccc(O)c(C(=O)O)c2)ccc1C=Cc1ccc(O)c(C(=O)O)c1` [Methoxy-X34, reference compound], the values for the dissociation constant Kd (on neuritic plaques; in series [2]) were 0.219 µM and 0.325 µM, respectively. Besides, in series [1], the “Binding to CAA-laden vessels versus neuritic plaques (fluorescent staining)” value is “visualized both cerebrovascular Aβ deposits and neuritic plaques”. For the same compound, in series [4], the logPoct is 0.19.
As to `O=c1ccc2nc3ccc(O)cc3oc-2c1` [Resorufin, 7-hydroxy-3H-phenoxazin-3-one], in the series on CAA deposits (i.v. up to 50 mg/kg, aged Tg2576 mice (15 mo)), the “Visualization of CAA deposits after intravenous administration” value was “failed to visualize CAA deposits”. Besides, in the series with CAA deposits (mouse, in vivo), the “Crossing of the BBB” value is reported as “failed to cross the BBB”. Further, the “Staining of 3D6-positive amyloid deposits” value in series [5] was “marked resorufin-positive staining was noted in the 3D6-positive cerebral arterioles”. For the same compound, the “Binding to CAA-laden vessels versus neuritic plaques (fluorescent staining)” value in series [1] is on record as “strongly bind CAA-laden cerebral arterioles but not parenchymal neuritic plaques”. Moreover, in series [3], the log partition coefficient (logP) was 0.427 ± 0.036 and the logPoct came to 0.43.
As for `COc1cc(/C=C/c2ccc(O)cc2)ccc1/C=C/c1ccc(O)cc1` [methoxy-X04], the “Live fluorescent labeling of amyloid deposits by methoxy-X04” value in series [6] was “labeled Aβ aggregates in both cerebral arteries and parenchymal neuritic plaques”.
